# From patent publication US7316990B2, “High-strength, low viscosity herbicidal formulations of glyphosate” (Dow AgroSciences LLC, priority 2003, dated 2008)
# System: Five broadleaf species (IPOHE, CHEAL, EPHHL, ABUTH and CASOB)
# Test: Greenhouse study of glyphosate salt solutions in mixture with a second herbicide (Colby's equation)
# Format: in vivo
# Details: for % Actual Control: 420 gae/ha glyphosate and/or 140 gae/ha second herbicide, 3 days after application, averaged over the 5 species; for Herbicide interaction with 2,4-D DMA and triclopyr TEA (actual versus expected control): Colby's equation
# Description: In a further greenhouse study, the efficacy of a glyphosate DMA salt solution in mixture with DMA 4 (456 g/l 2,4-D acid equivalent in the form of the DMA salt) and Garlon 3A (360 g/l triclopyr acid equivalent in the form of the triethylamine [TEA] salt) respectively was compared with the efficacy of a glyphosate K salt solution in the same mixtures. The glyphosate salt solutions were prepared by diluting the glyphosate DMA salt concentrate and glyphosate K salt concentrate with the required amount of water to prepare solutions containing 480 g/l glyphosate acid equivalent each. Five broadleaf species (IPOHE, CHEAL, EPHHL, ABUTH and CASOB) were sprayed with the individual formulations as well as the mixtures listed in Table 6. The herbicide interactions were analyzed using Colby's equation. This equation for the expected mixture response is: Y1+2=Y1+Y2−(Y1Y2)100 where Y1+2 is the expected mixture response and y1 and y2 are the percent control values of the individual herbicides.
Compound,% Actual Control,"Herbicide interaction with 2,4-D DMA and triclopyr TEA (actual versus expected control)"
O=C(O)CNCP(=O)([O-])O.[K+] [glyphosate K salt],35.7%,antagonistic
CCN(CC)CC.O=C(O)COc1nc(Cl)c(Cl)cc1Cl [triclopyr TEA salt],55.0%,
CNC.O=C(O)CNCP(=O)(O)O [glyphosate DMA salt],35.7%,no antagonism
"CNC.O=C(O)COc1ccc(Cl)cc1Cl [2,4-D DMA salt]",47.0%,
